Data: patent US10654792B2, “Carboxylic acid ester prodrug inhibitors of MEK” (DUQUESNE UNIVERSITY OF THE HOLY GHOST, priority 2012, dated 2020)

Legend:
MEK5 = molecular target: T1, MEK5 (Homo sapiens, UniProt Q13163); experiment: Western blot, cellular pERK5 decrease after EGF stimulation; format: cell-based; details: MDA-MB-231 cells, compound 10 μM pretreatment 30 min, then EGF 50 ng/mL 15 min
T1 construct: The MDA-MB-231 triple negative breast cancer cell line was pretreated with compounds; endogenous in cells; host or cells: MDA-MB-231
T1 sequence (Q13163 1-448): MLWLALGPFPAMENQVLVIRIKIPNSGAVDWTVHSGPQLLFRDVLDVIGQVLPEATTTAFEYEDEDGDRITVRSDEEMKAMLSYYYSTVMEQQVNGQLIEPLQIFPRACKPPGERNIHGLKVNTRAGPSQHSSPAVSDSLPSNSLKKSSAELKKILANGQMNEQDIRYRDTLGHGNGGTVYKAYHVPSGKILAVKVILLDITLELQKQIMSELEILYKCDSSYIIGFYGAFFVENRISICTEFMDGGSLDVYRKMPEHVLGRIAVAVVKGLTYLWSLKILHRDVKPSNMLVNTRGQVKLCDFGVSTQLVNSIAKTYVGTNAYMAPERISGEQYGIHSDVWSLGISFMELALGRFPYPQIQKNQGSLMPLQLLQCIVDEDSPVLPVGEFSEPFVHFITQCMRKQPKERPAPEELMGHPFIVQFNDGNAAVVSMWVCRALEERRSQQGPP
Experimental: (§1) Western Blot Analysis of Potential MEK-5 Inhibitors
(§2) The MDA-MB-231 triple negative breast cancer cell line was pretreated with compounds (10 μM) for 30 min followed by stimulation with epidermal growth factor (EGF, 50 ng/mL) for 15 min. Vehicle-treated cells were pretreated with DMSO for 30 min prior to EGF stimulation for 15 min. Protein visualization and quantification analysis was performed using LI-COR Odyssey Imager. *P<0.05 vs. Vehicle, one-way ANOVA followed by Tukey-Kramer test (n=3)

MEK1/2 = experiment: Western blot, cellular pERK1/2 decrease after EGF stimulation; format: cell-based; details: MDA-MB-231 cells, compound 10 μM pretreatment 30 min, then EGF 50 ng/mL 15 min
Experimental: as §1, §2

## N#CC(=C(/N)Sc1ccccc1N)/C(C#N)=C(\N)Sc1ccccc1N [U0126, reference compound]
MEK5
  cellular pERK5 decrease (%): 0.28%
MEK1/2
  cellular pERK1/2 decrease (%): 99.72%

## O=C(O)c1ccc(F)c(F)c1Nc1ccc(I)cc1F [SC-1-148, 3,4-Difluoro-2-((2-fluoro-4-iodophenyl)amino)benzoic Acid]
MEK5
  cellular pERK5 decrease (%): 20.1%
MEK1/2
  cellular pERK1/2 decrease (%): 98.5%

## O=C(O)c1ccc(F)c(F)c1Nc1ccccc1 [SC-1-175]
MEK5
  cellular pERK5 decrease (%): 2.1%
MEK1/2
  cellular pERK1/2 decrease (%): 64.4%

## COC(=O)c1ccc(F)c(F)c1Nc1ccc(I)cc1F [SC-1-72 Ester]
MEK5
  cellular pERK5 decrease (%): 20.1%
MEK1/2
  cellular pERK1/2 decrease (%): 98.5%

## CN[C@@H]1C[C@H]2O[C@@](C)([C@@H]1OC)n1c3ccccc3c3c4c(c5c6ccccc6n2c5c31)C(=O)NC4 [staurosporine, reference compound]
MEK1/2
  cellular pERK1/2 decrease (%): 98.93%
